Tests used:
[1] = Percentage increase of mass after standing in air (absorption of carbon dioxide); assay type: physicochemical; settings: air environment at 23° C. and 50% RH for a week
Description: A cyclic polyamine compound, MXDA, was put in a container and left to stand in an air environment at 23° C. and 50% RH for a week. By doing so, MXDA and carbon dioxide in the air were reacted to give a reaction product of MXDA and carbon dioxide (carbonate of MXDA). At that stage, to suppress uneven reaction, the container in which the cyclic polyamine compound was placed was shaken as necessary so as not to leave unreacted MXDA. The water content in the resulting reaction product (carbonate of MXDA) was 0% by mass.
Next, the amount of increase of the mass of MXDA was measured, and the percentage increase of the mass of the cyclic polyamine compound was calculated by the following equation.
Percentage increase of mass of cyclic polyamine compound [% by mass]=100×amount of increase of mass of cyclic polyamine compound (g)/(initial mass of cyclic polyamine compound (g)[…])

[2] = Maximum carbon dioxide (CO2) release temperature by DSC; assay type: physicochemical; settings: after 24 hours in air at 23° C. and 50% RH; heating rate 10° C./minute, nitrogen
Description: A carbon dioxide detector and a Petri dish were placed in an openable desiccator (inner dimension: 370 mm × 260 mm × 272 mm). Subsequently, the cyclic polyamine compound (5 mmol) was added to the Petri dish in the desiccator and the door was immediately closed to leave the cyclic polyamine compound to stand in the desiccator in an air environment at 23° C. and 50% RH for 24 hours. The initial concentration of carbon dioxide was adjusted to about 400 ppm.
Then the cyclic polyamine compound was taken out of the desiccator to give a cyclic polyamine compound with carbon dioxide absorbed. The maximum carbon dioxide release temperature of the cyclic polyamine compound with carbon dioxide absorbed was measured by subjecting the cyclic polyamine compound to DSC as described below. First, differential scanning calorimetry of the cyclic polyamine compound was performed under conditions of a temperature range of 23 to 250° C., a heating rate of 10° C./minute and a nitrogen atmosphere using a differential thermogravimeter (product name DTG-60 made by Shimadzu Corporation). The temperature at which the amount of heat absorbed due to the desorption of carbon dioxide was the maximum was calculated from the DSC curve obtained, and the temperature was determined as the maximum carbon dioxide release temperature of the cyclic polyamine compound.

**Q.** With NCc1cccc(CN)c1 [MXDA, metaxylylenediamine] as the compound, how does the “percentage increase of the mass” value [1] read?
**A.** 24.1 % by mass

**Q.** And the “maximum carbon dioxide (CO2) release temperature” value [2]?
**A.** 135.5 °C

Reference: patent publication US20260015451A1, “FOAMED-RESIN-FORMABLE COMPOSITION, POLYUREA-BASED RESIN FOAM BODY, AND POLYUREA-BASED RESIN FOAM BODY PRODUCTION METHOD” (MITSUBISHI GAS CHEMICAL COMPANY, INC., priority 2022, published 2026)
